Key:
[1] = test system: myelin basic protein (MBP); test: Spinal cord MBP by Western blot, EAE mice; type: in vivo
Procedure: (§1) Preparation of mice model and administration: experimental autoimmune encephalomyelitis (EAE) mice model is an important tool for studying various human demyelinating diseases of nervous system. In the present experiment, the preparation of EAE mice model was performed by immunizing female C57BL/6J mice with myelin sheath oligodendroglial cell surface glycoprotein MOG35-55. That is, the mice were subcutaneously injected at dorsal part of spinal column with 0.2 mL of MOG35-55 antigen elixir, and 0.2 ml of bordetella pertussis solution was intraperitoneally injected at the time of immunization injection and 48 h thereafter, respectively. Icariin was intragastrically administered after the last injection of bordetella pertussis solution, for consecutive 3 weeks.
(§2) Experimental objective: myelin sheath is formed with prominences of oligodendroglial cells. CNPase, myelin basic protein (MBP) are marker proteins of mature oligodendroglial cells. The present experiment was to observe the expression of CNPase and MBP to represent the content of oligodendroglial cells in spinal cord of EAE model mice by Western blot method; and to study the effects of icariin on it.
(§3) Experimental method: the mice were anesthetized and sacrificed, fresh spinal cord was taken on ice, total protein was extracted by cleavage on ice, to prepare Western blot sample, added separately with CNPase, MBP primary antibodies and incubated, added with corresponding secondary antibodies, ECL colorated, Kodak film exposed. Pictures were analyzed with Image J software and standardized with β-actin.

[2] = test system: inflammatory cell infiltration in spinal cord tissues of EAE mice model; test: Inflammatory cell infiltration in spinal cord, HE staining, EAE mice; type: in vivo; details: scale 0-4
Procedure: as §1
Experimental objective: the pathological changes of spinal cord in EAE model, especially inflammatory cell infiltration situations was assayed by hematoxylin-eosin (HE) staining test, and the intervention effects of […] on these pathological changes were observed.
Experimental method: the mice were anesthetized with 10% chloral hydrate on the 28th day of experiment, fixed by perfusion of 4% paraformaldehyde, spinal cord tissues were taken for making paraffin sections, section thickness […]. Stained with HE, observed under microscope, and scored according to the following standard: 0 score, absence of cell infiltration; 1 score, spinal meninge cell infiltration; 2 score, 1 to 4 small ranges of cell infiltration around vessels; 3 score, 5 or more small ranges of cell infiltration around vessels, or one or more accumulatively substantial large range of cell infiltration; 4 score, a large number of cell infiltration ranges accumulatively existing in 20% or more of white matter regions.

[3] = test system: myeloid tissue myelinoclasis in EAE mice model; test: Myelinoclasis of myeloid tissue, LFB staining, EAE mice; type: in vivo; details: scale 0-4
Procedure: as §1
Experimental objective: the myelinoclasis of myeloid tissue of EAE model mice were assayed by Luxol Fast Blue (LFB) staining, and the intervention effects of icariin on this pathological change were studied.
Experimental method: the mice were anesthetized with 10% chloral hydrate on the 29th day of experiment, fixed by perfusion of 4% paraformaldehyde, myeloid tissues were taken for making paraffin sections, section thickness […]. Stained with LFB, observed under microscope, and scored according to the following standard: 0 score, absence of myelinoclasis; 1 score, one small range of myelinoclasis; 2 score, 2 or 3 small ranges of myelinoclasis; 3 score, 1 to 2 large ranges of myelinoclasis; 4 score, large ranges of myelinoclasis accumulatively existing in 20% or more of white matter regions.

IL-6 = test: Serum IL-6 content by ELISA, EAE mice; type: in vivo
Procedure: as §1
(§4) Experimental objective: interleukin-1 (IL-1) and IL-6 are important inflammatory cytokines, and have promoting effects on inflammatory reactions. This experiment used enzyme linked immunosorbent assay (ELISA) to measure contents of IL-1 and IL-6 in serums of EAE mice model, and the effects of icariin on these contents were observed.
(§5) Experimental method: mice were anesthetized with pentobarbital sodium, blood sample was taken from abdominal aorta, stood at room temperature for 2 h, centrifuged at 3000 rpm for 20 min, and supernatant was taken, stored at −80° C. for use. The operation was performed strictly according to the steps of specification of ELISA kit. Optical density was measured with ELIASA at 450 nm. The corresponding contents of IL-1 and IL-6 were calculated with the measured OD values on standard curves.

IL-1 = test: Serum IL-1 content by ELISA, EAE mice; type: in vivo
Procedure: as §1, §4, §5

CNPase = test: Spinal cord CNPase by Western blot, EAE mice; type: in vivo
Procedure: as §1, §2, §3

[4] = test system: peripheral blood CD4+ and CD8+ T cells; test: Peripheral blood T cell subgroup by flow cytometer, EAE mice; type: in vivo
Procedure: as §1
Experimental objective: one common feature of autoimmune diseases is the […]. In this experiment, the numbers of CD4+ and CD8+ cells in peripheral blood T cell subgroup of EAE mice mode were measured by flow cytometer (FACS), and the ratio of them was obtained; and the effects of icariin on these changes were observed.
Experimental method: mice were anesthetized with pentobarbital sodium, blood sample was taken from abdominal aorta, stood at room temperature for 2 h, centrifuged at 3000 rpm for 20 min, and cells were taken, added with anti-CD4+, CD8+ T cell antibodies with different markers, then the percentages of CD4+, CD8+ cells in T lymphocytes were measured by flow cytometer, and the CD4+/CD8+ T cells ratio was calculated.

[5] = test system: experimental autoimmune encephalomyelitis (EAE) mice model; test: Nervous function damage score in EAE mice model; type: in vivo, C57BL/6J mice; details: peak of attack, scale 0-5
Procedure: as §1
Nervous function test method: the ethological changes of mice were observed by two experimenters every day using blind method. Scoring standard: 0 score, absence of symptom; 1 score, decrease of tail tension, evident slight gait awkward; 2 score, disappearance of tail tension, moderate gait abnormal, deficient in maintaining gesture; 3 score, limb strength weak; 4 score, limb paralysis; 5 score, near death or died.

COc1ccc(-c2oc3c(CC=C(C)C)c(OC4OC(CO)C(O)C(O)C4O)cc(O)c3c(=O)c2OC2OC(C)C(O)C(O)C2O)cc1 (stereo not drawn) [icariin, 3-((6-deoxymannopyranosyl)oxy)-7-(glucopyranosyloxy)-5-hydroxy-2-(4-methoxyphenyl)-8-(3-methyl-2-butenyl)-4H-1-benzopyran-4-ketone]
MBP/actin Integration grey level ([1]; 3 mg/kg): 0.98 ± 0.13 | MBP/actin Integration grey level ([1]; 10 mg/kg): 1.07 ± 0.08 | MBP/actin Integration grey level ([1]; 30 mg/kg): 1.11 ± 0.06 | Inflammatory cell infiltration (HE staining score) ([2]; 3 mg/kg): 2.08 ± 0.09 | Inflammatory cell infiltration (HE staining score) ([2]; 10 mg/kg): 1.58 ± 0.16 | Inflammatory cell infiltration (HE staining score) ([2]; 30 mg/kg): 1.18 ± 0.21 | Myelinoclasis (LFB staining score) ([3]; 3 mg/kg): 0.91 ± 0.21 | Myelinoclasis (LFB staining score) ([3]; 10 mg/kg): 0.78 ± 0.16 | Myelinoclasis (LFB staining score) ([3]; 30 mg/kg): 0.66 ± 0.20 | IL-6 content (IL-6; 3 mg/kg): 0.147 ± 0.011 pg/mL | IL-6 content (IL-6; 10 mg/kg): 0.142 ± 0.013 pg/mL | IL-6 content (IL-6; 30 mg/kg): 0.126 ± 0.011 pg/mL | IL-1 content (IL-1; 3 mg/kg): 0.119 ± 0.003 pg/mL | IL-1 content (IL-1; 10 mg/kg): 0.114 ± 0.001 pg/mL | IL-1 content (IL-1; 30 mg/kg): 0.113 ± 0.002 pg/mL | CNPase/actin Integration grey level (CNPase; 3 mg/kg): 1.16 ± 0.04 | CNPase/actin Integration grey level (CNPase; 10 mg/kg): 1.28 ± 0.07 | CNPase/actin Integration grey level (CNPase; 30 mg/kg): 1.33 ± 0.05 | CD4 + T cells ([4]; 3 mg/kg): 52.78 ± 3.30% | CD4 +/CD8 + ratio ([4]; 3 mg/kg): 1.25 ± 0.20 | CD8 + T cells ([4]; 3 mg/kg): 42.61 ± 3.10% | CD4 + T cells ([4]; 10 mg/kg): 58.89 ± 1.27 % | CD4 +/CD8 + ratio ([4]; 10 mg/kg): 1.62 ± 0.06 | CD8 + T cells ([4]; 10 mg/kg): 36.43 ± 0.38 % | CD4 + T cells ([4]; 30 mg/kg): 55.81 ± 1.41% | CD4 +/CD8 + ratio ([4]; 30 mg/kg): 1.39 ± 0.12 | CD8 + T cells ([4]; 30 mg/kg): 40.20 ± 1.79% | Nervous function damage score ([5]; 3 mg/kg intragastric): 0.57 ± 0.49 | Nervous function damage score ([5]; 10 mg/kg intragastric): 0.32 ± 0.52 | Nervous function damage score ([5]; 30 mg/kg intragastric): 0.13 ± 0.34
